Data taken from article PMC9646673, “A Novel, Orally Bioavailable, Small-Molecule Inhibitor of PCSK9 With Significant Cholesterol-Lowering Properties In Vivo” (Journal of Lipid Research, 2022).

How the values were obtained:
APOE∗3-Leiden.CETP mice [1] = conditions: cited from earlier work
APOE∗3-Leiden.CETP mice [2] = assay: Second efficacy study: body weight, food intake, plasma ALT and AST; type: in vivo, mouse; design: Body weight (mean ± SD) / Food intake (mean ± SD): unit not given here; conditions: NYX-PCSK9i 50 mg/kg BID PO, atorvastatin […]
From the text: Animal experiments were approved by the governmental central committee on animal experiments (AVD5010020172064) and TNO’s animal welfare body (TNO-471 and TNO-482). Female APOE∗3-Leiden.CETP transgenic mice (11–16 weeks of age) were bred at the animal facility of TNO-InnoSer (Leiden, The Netherlands). Female animals were used in this study as they are more responsive to dietary cholesterol and fat than males and therefore typically develop atherosclerosis more rapidly than male APOE∗3-Leiden and APOE∗3-Leiden.CETP mice on cholesterol-containing diets ([33], [34]). Although measurements of atherosclerosis were not included as part of the present study, females were used with the prospect in mind that atherosclerosis studies will follow. The mice were housed under standard conditions that included 12 h light-dark cycles and access to a WTD and sterilized tap water ad libitum. Body weight, food intake, and clinical signs of behavior were monitored throughout the studies. […] Time t = 0 (weeks) was designated as the time at which mice were matched into groups after the 3-week run-in period in each efficacy study.
In both studies, blood samples were collected at weekly intervals via tail vein sampling after fasting the mice for 4 h. Blood samples were centrifugated (4500 g at 4°C), and the plasma was collected for the following analyses. Total plasma cholesterol levels were determined using a Cholesterol CHOD-PAP kit according to the manufacturer’s instructions. Plasma HDL-C levels were determined by first precipitating apoB-containing lipids using PEG 6000/glycine and then utilizing the Cholesterol CHOD-PAP kit ([35]). Non-HDL-C levels were determined by subtracting HDL-C levels from total cholesterol levels ([32]). Group-pooled lipoprotein profiles were determined by FPLC analysis using an AKTApurifier 10 FPLC system (GE Healthcare, Chicago, IL). Plasma PCSK9 levels were determined using a Mouse PCSK9 Quantikine ELISA kit as per the manufacturer’s protocol. ALT and AST levels of group-pooled samples were measured using the Roche Reflotron Plus System (Mannheim, Germany).

hepatic LDLR protein = assay: Second efficacy study: hepatic LDLR protein (Western blotting); type: in vivo, mouse; conditions: day 35; NYX-PCSK9i 50 mg/kg BID PO, atorvastatin […]

Molecule | hepatic cholesteryl ester content, fecal bile acid content and fecal neutral sterol levels (APOE∗3-Leiden.CETP mice [1]) | Body weight (mean ± SD) (APOE∗3-Leiden.CETP mice [2]; day 0 (baseline)) | Food intake (mean ± SD) (APOE∗3-Leiden.CETP mice [2]; day 0 (baseline)) | Food intake (mean ± SD) (APOE∗3-Leiden.CETP mice [2]; day 7) | Food intake (mean ± SD) (APOE∗3-Leiden.CETP mice [2]; day 14) | Food intake (mean ± SD) (APOE∗3-Leiden.CETP mice [2]; day 21) | Body weight (mean ± SD) (APOE∗3-Leiden.CETP mice [2]; day 28) | Food intake (mean ± SD) (APOE∗3-Leiden.CETP mice [2]; day 28) | Food intake (mean ± SD) (APOE∗3-Leiden.CETP mice [2]; day 35) | increase in hepatic LDLR protein expression (hepatic LDLR protein)
alirocumab: a monoclonal antibody against PCSK9 | affected none of these parameters | – | – | – | – | – | – | – | – | –
CC(C)c1c(C(=O)Nc2ccccc2)c(-c2ccccc2)c(-c2ccc(F)cc2)n1CC[C@@H](O)C[C@@H](O)CC(=O)O [atorvastatin, reference compound] | – | 21.7 ± 0.8 | 3.4 ± 0.3 | 2.5 ± 0.1 | 2.5 ± 0.2 | 2.3 ± 0.0 | 21.8 ± 1.2 | 2.3 ± 0.1 | 2.5 ± 0.1 | no significant effect
